Molecules are shown by their SMILES.

One may read the koff as the first-order rate constant of dissociation.

The experiment addresses T1, Peptidase (Staphylococcus aureus, UniProt Q7DHH4).
T1 sequence (Q7DHH4 whole entry): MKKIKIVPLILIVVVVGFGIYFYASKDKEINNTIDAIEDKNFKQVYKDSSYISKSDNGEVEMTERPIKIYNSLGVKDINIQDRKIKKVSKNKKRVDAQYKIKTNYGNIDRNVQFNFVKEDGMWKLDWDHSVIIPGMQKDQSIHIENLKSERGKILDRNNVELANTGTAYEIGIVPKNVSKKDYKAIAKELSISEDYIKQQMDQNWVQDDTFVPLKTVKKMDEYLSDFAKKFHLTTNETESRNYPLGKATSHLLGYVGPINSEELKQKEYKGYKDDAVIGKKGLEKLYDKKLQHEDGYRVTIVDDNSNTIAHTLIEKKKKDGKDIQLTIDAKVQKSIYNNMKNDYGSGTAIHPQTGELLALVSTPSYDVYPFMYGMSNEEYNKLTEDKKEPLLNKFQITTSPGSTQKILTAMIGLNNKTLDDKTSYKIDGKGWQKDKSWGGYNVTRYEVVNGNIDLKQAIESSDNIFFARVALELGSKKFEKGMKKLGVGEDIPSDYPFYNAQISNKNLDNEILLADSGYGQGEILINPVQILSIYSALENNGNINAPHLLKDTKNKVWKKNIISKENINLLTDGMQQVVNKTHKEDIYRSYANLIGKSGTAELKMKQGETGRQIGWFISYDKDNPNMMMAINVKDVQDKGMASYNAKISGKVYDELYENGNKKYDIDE
Briefly: Binding affinity to Staphylococcus aureus PBP2a assessed as dissociation constant by SPR assay. Background: SPR reads the build-up and loss of mass on a sensor chip optically.
Regarding `Cc1ccc(NC(=O)[C@H](Cc2c[nH]c3ccccc23)NC(=O)C2CCN(C(=O)CNC(=O)OC(C)(C)C)CC2)cc1`, the koff was 0.0253 s⁻¹.
Then `COc1ccc(-c2cc(=O)oc3c(C)c(OCC(=O)N[C@@H](Cc4c[nH]c5ccc(O)cc45)C(=O)O)ccc23)cc1`, with 0.0214 s⁻¹; and `COc1cc2c(c(OC)c1OC)-c1ccc(NCC(=O)NCCc3c[nH]c4ccccc34)c(=O)cc1[C@@H](NC(C)=O)CC2`, with 0.0207 s⁻¹; and `COc1ccc(NC(=O)[C@H]2Oc3c(c(=O)oc4ccccc34)[C@@H]2c2ccc(CCCN3CCCC3=O)cc2)cc1`, with 0.0284 s⁻¹.
